# Data published in paper PMC7110988 (Chemistry & Biology, 2005).
# Entries after “also recorded” stand apart in the source; their conditions may differ.
# What was measured:
# [1] = molecular target: SCV helicase (nsp13) ATPase activity (Severe acute respiratory syndrome coronavirus, UniProt P0C6X7); assay: biochemical; set-up: species or system SARS coronavirus
# [2] = molecular target: SCV helicase helicase activity (Severe acute respiratory syndrome coronavirus, UniProt P0C6X7); format: biochemical, SARS coronavirus
# E. coli DnaB helicase = E. coli DnaB helicase (Escherichia coli, UniProt P0ACB0); format: biochemical
# [3] = molecular target: SCV helicase (nsp13) unstimulated ATPase activity (Severe acute respiratory syndrome coronavirus, UniProt P0C6X7); format: biochemical, SARS coronavirus
# [4] = system: SCV (strain GZ50) in FRhK-4 cells; assay: microbe, parasite or virus in culture; format: cell-based, SARS coronavirus
# [5] = system: SCV (strain GZ50) in FRhK-4 cells; format: cell-based, SARS coronavirus; details: 50 μM
# SARS coronavirus (SCV) = details: cited from earlier work
# E. coli DnaB helicase, sequence (P0ACB0 whole entry): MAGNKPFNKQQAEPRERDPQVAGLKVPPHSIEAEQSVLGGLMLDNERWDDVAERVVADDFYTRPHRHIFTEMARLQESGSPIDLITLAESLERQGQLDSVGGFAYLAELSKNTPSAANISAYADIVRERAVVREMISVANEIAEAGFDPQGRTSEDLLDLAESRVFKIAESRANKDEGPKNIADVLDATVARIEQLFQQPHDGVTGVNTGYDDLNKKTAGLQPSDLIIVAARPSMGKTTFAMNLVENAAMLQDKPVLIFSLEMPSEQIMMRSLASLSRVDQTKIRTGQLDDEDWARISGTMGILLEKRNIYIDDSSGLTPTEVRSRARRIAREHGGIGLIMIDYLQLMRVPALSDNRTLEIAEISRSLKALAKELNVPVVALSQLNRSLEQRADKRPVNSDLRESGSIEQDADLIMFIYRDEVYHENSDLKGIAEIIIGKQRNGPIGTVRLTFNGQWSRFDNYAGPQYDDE
smiles,measurement,setting,value
"COc1cc(C23OC4(O)CC(O)(CC(O)(C4)O2)O3)ccc1O [vanillinbananin, 1-(4-hydroxy-3-methoxyphenyl)-2,8,9-trioxaadamantane-3,5,7-triol]",IC50,[1],0.68 µM
same,Inhibition of helicase activity (in words),[2],effective inhibitors; also recorded: the best inhibitors of DNA-unwinding
"Cc1ncc(CO)c(C23OC4(O)CC(O)(CC(O)(C4)O2)O3)c1O [bananin, 1-[3-hydroxy-5-(hydroxymethyl)-2-methyl-4-pyridinyl]-2,8,9-trioxaadamantane-3,5,7-triol]",Inhibition of DnaB helicase,E. coli DnaB helicase,did not inhibit
same,Inhibition of unstimulated basal ATPase activity,[3],not an effective inhibitor; also recorded: Far weaker inhibition
same,Inhibition of unstimulated basal ATPase activity at 100 µM,[3]; 100 µM,slight inhibition
same,IC50,[1],2.3 µM
same,Mechanism of inhibition of ATPase activity,[1],noncompetitive inhibitor
same,Specificity index (CC50/EC50),FRhK-4 cells,over 39
same,Reduction of viral titre,[4],~50%
same,Viral titre,[4],almost zero
same,"Viral titre, % of untreated control infection",[4],below 10%
same,EC50,"[4]; Severe acute respiratory syndrome coronavirus, FRhK-4, read-out: EC50 (antiviral, viral titre)",< 10 µM
same,Inhibition of helicase activity (in words),[2],effective inhibitors; also recorded: the best inhibitors of DNA-unwinding
same,Cytopathic effects relative to control infection,[5],distinctly reduced
NC(=O)c1ncn([C@@H]2O[C@H](CO)[C@@H](O)[C@H]2O)n1 [ribavirin],Activity in cell culture,SARS coronavirus (SCV),lack of activity
"COc1cc(CC(C)c2nc(C)c(O)c(C34OC5(O)CC(O)(CC(O)(C5)O3)O4)c2CO)ccc1O (racemic) [eubananin, 1-[6-[(2RS)-1-(4-hydroxy-3-methoxyphenyl)-2-propyl]-3-hydroxy-5-(hydroxymethyl)-2-methyl-4-pyridinyl]-2,8,9-trioxaadamantane-3,5,7-triol]",IC50,[1],2.8 µM
same,Inhibition of helicase activity (in words),[2],effective inhibitors; also recorded: the best inhibitors of DNA-unwinding
